Assay results taken from patent US20230113037A1 (Bayer Aktiengesellschaft, priority 2019, published 2023).
Like-named read-outs stand apart in the source and are kept apart here.

What was measured:
AHR [1] = target: T1, AHR (Homo sapiens, UniProt P35869); test: In vitro assay 1: antagonism in human cell line (AHR transactivation, firefly luciferase reporter, kynurenic acid prestimulated); type: cell-based; conditions: AHR Antagonism Human IC50 [M]
T1 construct: U87 MG glioblastoma cells (ATCC #HTB-14) endogenously expressing AHR; endogenous in cells; host or cells: U87 MG glioblastoma cells (ATCC #HTB-14)
T1 sequence (P35869 11-848): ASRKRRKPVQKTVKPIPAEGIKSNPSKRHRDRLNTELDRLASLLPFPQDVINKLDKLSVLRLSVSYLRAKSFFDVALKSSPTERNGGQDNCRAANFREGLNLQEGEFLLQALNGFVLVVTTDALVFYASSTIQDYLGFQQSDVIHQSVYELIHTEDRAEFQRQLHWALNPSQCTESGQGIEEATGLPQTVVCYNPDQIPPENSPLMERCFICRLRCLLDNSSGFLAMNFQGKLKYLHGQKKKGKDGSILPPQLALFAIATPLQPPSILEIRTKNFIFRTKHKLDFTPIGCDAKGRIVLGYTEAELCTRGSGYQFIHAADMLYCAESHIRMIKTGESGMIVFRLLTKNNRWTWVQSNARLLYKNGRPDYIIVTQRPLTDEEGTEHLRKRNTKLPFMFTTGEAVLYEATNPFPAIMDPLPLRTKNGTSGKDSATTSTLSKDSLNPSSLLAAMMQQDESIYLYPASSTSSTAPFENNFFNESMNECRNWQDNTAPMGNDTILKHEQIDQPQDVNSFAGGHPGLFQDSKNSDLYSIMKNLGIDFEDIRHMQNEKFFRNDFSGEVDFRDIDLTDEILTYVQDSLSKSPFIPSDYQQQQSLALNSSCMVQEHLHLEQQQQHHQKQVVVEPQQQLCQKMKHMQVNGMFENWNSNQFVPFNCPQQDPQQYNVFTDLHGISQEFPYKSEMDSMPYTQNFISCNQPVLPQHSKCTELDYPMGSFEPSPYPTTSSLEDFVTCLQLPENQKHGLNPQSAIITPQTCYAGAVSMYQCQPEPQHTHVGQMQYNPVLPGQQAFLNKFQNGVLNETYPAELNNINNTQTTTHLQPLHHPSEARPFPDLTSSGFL
Method in brief: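 U87 MG glioblastoma cells with endogenous AHR, stably carrying a DRE-driven firefly luciferase reporter and constitutive Renilla reporter, prestimulated with kynurenic acid before compound addition. Firefly and Renilla read by dual luciferase; Renilla flags toxicity; normalized to controls (150 μM kynurenic acid + 5 μM staurosporine as full inhibition); repeat values averaged or median.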

AHR [2] = target: T2, AHR (Mus musculus, UniProt P30561); test: In vitro assay 3: antagonism in mouse cell line (AHR transactivation, firefly luciferase reporter, kynurenic acid prestimulated); type: cell-based
T2 sequence (P30561 1-848 P471L/N533S/M589L): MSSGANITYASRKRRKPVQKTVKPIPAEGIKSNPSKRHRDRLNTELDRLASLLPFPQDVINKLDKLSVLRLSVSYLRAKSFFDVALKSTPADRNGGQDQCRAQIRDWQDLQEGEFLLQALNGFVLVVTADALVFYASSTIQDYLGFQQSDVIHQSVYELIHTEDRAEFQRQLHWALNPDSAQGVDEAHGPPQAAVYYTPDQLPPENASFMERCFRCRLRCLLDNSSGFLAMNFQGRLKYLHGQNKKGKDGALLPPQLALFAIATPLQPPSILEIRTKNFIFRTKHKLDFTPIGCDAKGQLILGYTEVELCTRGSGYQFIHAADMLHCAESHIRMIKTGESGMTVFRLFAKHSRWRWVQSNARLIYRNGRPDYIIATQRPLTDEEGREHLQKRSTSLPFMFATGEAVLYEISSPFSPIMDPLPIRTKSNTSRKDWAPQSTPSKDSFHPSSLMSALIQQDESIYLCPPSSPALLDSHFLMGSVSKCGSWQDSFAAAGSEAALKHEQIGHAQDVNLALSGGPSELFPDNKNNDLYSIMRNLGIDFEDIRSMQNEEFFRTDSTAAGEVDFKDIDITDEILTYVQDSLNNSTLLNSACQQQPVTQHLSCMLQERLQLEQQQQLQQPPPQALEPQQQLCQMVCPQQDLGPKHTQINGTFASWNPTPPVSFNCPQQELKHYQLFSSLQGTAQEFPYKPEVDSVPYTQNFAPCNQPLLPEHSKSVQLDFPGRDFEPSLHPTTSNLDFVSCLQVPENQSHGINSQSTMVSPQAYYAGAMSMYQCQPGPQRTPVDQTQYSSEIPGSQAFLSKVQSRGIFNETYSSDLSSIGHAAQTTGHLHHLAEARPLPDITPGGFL
Method in brief: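 Mouse cells stably carrying a DRE-driven AHR-inducible firefly luciferase reporter were prestimulated with the endogenous agonist kynurenic acid before compound addition. Luciferase read by SteadyGlo; cells without kynurenic acid served as full-inhibition control, with normalization to positive and negative controls. Repeat tests reported as mean or median.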

[3] = mouse Hepa 1c1c7 cells, 200 μM kynurenic acid, 20 hours, read-out: AHR Antagonism Mouse IC50

Structure (SMILES) | IC50 (AHR [1]) [M] | IC50 (AHR [2]; [3]) [nM] | IC50 (AHR [2]; read-out: AHR Antagonism Mouse IC50, mouse Hepa 1c1c7 cells, 200 μM kynurenic acid, 20 hours) [nM]
COc1ccc(-c2nc3c4cccc(Br)c4nc(N[C@@H]4CCCNC4=O)n3n2)cc1 [Example 223, (3R)-3-{[7-bromo-2-(4-methoxyphenyl)[1,2,4]triazolo[1,5-c]quinazolin-5-yl]amino}piperidin-2-one] | 5.32e-08 | 111 | –
COc1ccc(-c2nc3c4ccc(C)cc4nc(N[C@@H]4CCCCNC4=O)n3n2)cc1 [Example 228, (3R)-3-{[2-(4-methoxyphenyl)-8-methyl[1,2,4]triazolo[1,5-c]quinazolin-5-yl]amino}azepan-2-one] | 3.01e-08 | 38.9 | –
COc1ccc(-c2nc3c4ccc(Br)cc4nc(N[C@@H]4CCCCNC4=O)n3n2)cc1 [Example 229, (3R)-3-{[8-bromo-2-(4-methoxyphenyl)[1,2,4]triazolo[1,5-c]quinazolin-5-yl]amino}azepan-2-one] | 5.82e-08 | 101 | –
COc1ccc(-c2nc3c4cc(F)ccc4nc(N[C@@H]4CCCCNC4=O)n3n2)cc1 [Example 231, (3R)-3-{[9-fluoro-2-(4-methoxyphenyl)[1,2,4]triazolo[1,5-c]quinazolin-5-yl]amino}azepan-2-one] | 8.14e-10 | 0.406 | –
Cn1cc(-c2nc3c4cc(F)ccc4nc(N[C@@H]4CCCCNC4=O)n3n2)cn1 [Example 232, (3R)-3-{[9-fluoro-2-(1-methyl-1H-pyrazol-4-yl)[1,2,4]triazolo[1,5-c]quinazolin-5-yl]amino}azepan-2-one] | 8.83e-09 | – | 3.88
O=C1NCCCC[C@H]1Nc1nc2ccc(F)cc2c2nc(-c3ccccc3F)nn12 [Example 234, (3R)-3-{[9-fluoro-2-(2-fluorophenyl)[1,2,4]triazolo[1,5-c]quinazolin-5-yl]amino}azepan-2-one] | 1.7e-09 | 1.4 | –
COc1ccc(-c2nc3c4cc(Cl)ccc4nc(N[C@@H]4CCCCNC4=O)n3n2)cc1 [Example 235, (3R)-3-{[9-chloro-2-(4-methoxyphenyl)[1,2,4]triazolo[1,5-c]quinazolin-5-yl]amino}azepan-2-one] | 2.34e-09 | 1.14 | –
Cn1cc(-c2nc3c4cc(Cl)ccc4nc(N[C@@H]4CCCCNC4=O)n3n2)cn1 [Example 236, (3R)-3-{[9-chloro-2-(1-methyl-1H-pyrazol-4-yl)[1,2,4]triazolo[1,5-c]quinazolin-5-yl]amino}azepan-2-one] | 2.62e-08 | 21.2 | –
COc1ccc(-c2nc3c4cc(OC)ccc4nc(N[C@@H]4CCCCNC4=O)n3n2)cc1 [Example 237, (3R)-3-{[9-methoxy-2-(4-methoxyphenyl)[1,2,4]triazolo[1,5-c]quinazolin-5-yl]amino}azepan-2-one] | 1.33e-08 | 38.7 | –
COc1ccc2nc(N[C@@H]3CCCCNC3=O)n3nc(-c4cnn(C)c4)nc3c2c1 [Example 238, (3R)-3-{[9-methoxy-2-(1-methyl-1H-pyrazol-4-yl)[1,2,4]triazolo[1,5-c]quinazolin-5-yl]amino}azepan-2-one] | 1.69e-07 | 344 | –
COc1ccc2nc(N[C@@H]3CCCCNC3=O)n3nc(-c4ccc(F)cc4)nc3c2c1 [Example 239, (3R)-3-{[2-(4-fluorophenyl)-9-methoxy[1,2,4]triazolo[1,5-c]quinazolin-5-yl]amino}azepan-2-one] | 8.92e-09 | 10.2 | –
COc1ccc2nc(N[C@@H]3CCCCNC3=O)n3nc(-c4ccccc4F)nc3c2c1 [Example 240, (3R)-3-{[2-(2-fluorophenyl)-9-methoxy[1,2,4]triazolo[1,5-c]quinazolin-5-yl]amino}azepan-2-one] | 4.08e-08 | 171 | –
COc1ccc(-c2nc3c4cc(C)ccc4nc(N[C@@H]4CCCCNC4=O)n3n2)cc1 [Example 241, (3R)-3-{[2-(4-methoxyphenyl)-9-methyl[1,2,4]triazolo[1,5-c]quinazolin-5-yl]amino}azepan-2-one] | 1.27e-09 | 1.93 | –
COc1ccc(-c2nc3c4cc(Br)ccc4nc(N[C@@H]4CCCCNC4=O)n3n2)cc1 [Example 242, (3R)-3-{[9-bromo-2-(4-methoxypheny)[1,2,4]triazolo[1,5-c]quinazolin-5-yl]amino}azepan-2-one] | 3.06e-09 | 3.02 | –
COc1ccc(-c2nc3c4c(C)cccc4nc(N[C@@H]4CCCCNC4=O)n3n2)cc1 [Example 243, (3R)-3-{[2-(4-methoxyphenyl)-10-methyl[1,2,4]triazolo[1,5-c]quinazolin-5-yl]amino}azepan-2-one] | 4.02e-09 | 14.8 | –
Cn1cc(-c2nc3c4c(F)cccc4nc(N[C@@H]4CCCCNC4=O)n3n2)cn1 [Example 244, (3R)-3-{[10-fluoro-2-(1-methyl-1H-pyrazol-4-yl)[1,2,4]triazolo[1,5-c]quinazolin-5-yl]amino}azepan-2-one] | 2.17e-08 | 66.7 | –
COc1ccc(-c2nc3c4c(OC)cccc4nc(N[C@@H]4CCCCNC4=O)n3n2)cc1 [Example 245, (3R)-3-{[10-methoxy-2-(4-methoxyphenyl)[1,2,4]triazolo[1,5-c]quinazolin-5-yl]amino}azepan-2-one] | 3.21e-08 | 310 | –
COc1ccc(-c2nc3c4c(C#N)cccc4nc(N[C@@H]4CCCCNC4=O)n3n2)cc1 [Example 246, 2-(4-methoxyphenyl)-5-{[(3R)-2-oxoazepan-3-yl]amino}[1,2,4]triazolo[1,5-c]quinazoline-10-carbonitrile] | 3.32e-09 | 11.2 | –
Cn1cc(-c2nc3c4c(C#N)cccc4nc(N[C@@H]4CCCCNC4=O)n3n2)cn1 [Example 247, 2-(1-methyl-1H-pyrazol-4-yl)-5-{[(3R)-2-oxoazepan-3-yl]amino}[1,2,4]triazolo[1,5-c]quinazoline-10-carbonitrile] | 3.08e-07 | 591 | –
N#Cc1cccc2nc(N[C@@H]3CCCCNC3=O)n3nc(-c4ccc(F)cc4)nc3c12 [Example 248, 2-(4-fluorophenyl)-5-{[(3R)-2-oxoazepan-3-yl]amino}[1,2,4]triazolo[1,5-c]quinazoline-10-carbonitrile] | 5.71e-09 | 1.82 | –
N#Cc1cccc2nc(N[C@@H]3CCCCNC3=O)n3nc(-c4cccc(F)c4)nc3c12 [Example 249, 2-(3-fluorophenyl)-5-{[(3R)-2-oxoazepan-3-yl]amino}[1,2,4]triazolo[1,5-c]quinazoline-10-carbonitrile] | 2.96e-08 | 3.63 | –
COC(=O)c1cccc2c1nc(N[C@@H]1CCCCNC1=O)n1nc(-c3ccc(OC)cc3)nc21 [Example 250, Methyl 2-(4-methoxyphenyl)-5-{[(3R)-2-oxoazepan-3-yl]amino}[1,2,4]triazolo[1,5-c]quinazoline-7-carboxylate] | 1.43e-08 | 135 | –
COC(=O)c1cccc2nc(N[C@@H]3CCCCNC3=O)n3nc(-c4ccc(OC)cc4)nc3c12 [Example 252, methyl 2-(4-methoxyphenyl)-5-{[(3R)-2-oxoazepan-3-yl]amino}[1,2,4]triazolo[1,5-c]quinazoline-10-carboxylate] | 6.55e-08 | 49.8 | –
